In EPA's ToxRefDB 2:

Key:
dog [1] = details: Chronic toxicity; beagle; Oral; Capsule; dose end: 52 week; group: systemic; systemic / in life observation / body weight / body weight + systemic / in life observation / body weight / body weight gain + systemic / …
dog [2] = details: Chronic toxicity, beagle, Oral, Capsule, dose end: 12 month, group: systemic
rat [3] = details: Subchronic oral toxicity in rodents, wistar, Feed, dose end: 90 day, group: systemic
rat [4] = details: Prenatal developmental toxicity study; wistar; Oral; Feed; dose end: 21 GD; group: maternal; systemic / in life observation / food consumption / food consumption + systemic / in life observation / water consumption / water …
rabbit [5] = details: Prenatal developmental toxicity study, new zealand white, Oral, Gavage/Intubation, dose end: 18 GD
rat [6] = details: Prenatal developmental toxicity study, sprague dawley, Oral, Gavage/Intubation, dose end: 15 GD
rat [7] = details: Subchronic dermal toxicity, sprague dawley, Topical, dose end: 13 week, group: systemic, systemic / in life observation / body weight / body weight + systemic / in life observation / food consumption / food consumption + systemic…
mouse = details: Subchronic oral toxicity in rodents, b6c3f1, Feed, dose end: 91 day, group: systemic
rat [8] = details: Multigenerational reproductive toxicity study, wistar (Chbb = THOM-SPF), Oral, Feed, dose end: 1 generation
rat [9] = details: Subchronic oral toxicity in rodents, wistar, Feed, dose end: 3 month
dog [10] = details: Subchronic oral toxicity in nonrodent, beagle, Feed, dose end: 52 week, group: systemic, systemic / clinical chemistry / albumin / albumin + systemic / clinical chemistry / cholesterol / cholesterol + systemic / clinical …
rat [11] = details: Prenatal developmental toxicity study, wistar, Oral, Gavage/Intubation, dose end: 19 GD
rat [12] = details: Combined chronic toxicity/carcinogenicity; wistar; Oral; Feed; dose end: 104 week; group: systemic; systemic / in life observation / body weight / body weight + systemic / in life observation / body weight / body weight gain + systemic / …
rabbit [13] = details: Prenatal developmental toxicity study, himalayan, Oral, Gavage/Intubation, dose end: 28 GD
[14] = systemic / in life observation / clinical signs / abnormal gait + systemic / in life observation / clinical signs / ataxia + systemic / in …
[15] = systemic / in life observation / clinical signs / abnormal gait + systemic / in life observation / clinical signs / convulsions
[16] = systemic / in life observation / body weight / body weight gain + systemic / in life observation / food consumption / food consumption + …
[17] = group: developmental, developmental / developmental malformation / general / [other]
[18] = group: maternal, reproductive / reproductive performance / postimplantation loss / postimplantation loss + systemic / in life observation / food consumption…
[19] = group: developmental, developmental / developmental malformation / bone / fused
[20] = group: developmental, developmental / developmental malformation / bone / fused + developmental / developmental malformation / bone / [other] + developmental / …
[21] = group: maternal, systemic / in life observation / body weight / body weight gain + systemic / in life observation / clinical signs / salivation + …
[22] = systemic / clinical chemistry / triglycerides / triglycerides + systemic / clinical chemistry / urea nitrogen / urea + systemic / in life …
[23] = systemic / pathology microscopic / stomach / erosion
[24] = group: offspring, systemic / in life observation / body weight / offspring (pup) weight
[25] = group: parental, systemic / in life observation / body weight / body weight + systemic / in life observation / body weight / body weight gain + systemic / in…
[26] = group: cholinesterase, cholinesterase / cholinesterase / cholinesterase / cholinesterase (che)
[27] = group: systemic, systemic / in life observation / body weight / body weight + systemic / in life observation / body weight / body weight gain + systemic / in…
[28] = group: developmental, developmental / developmental malformation / bone / cervical + developmental / developmental malformation / kidney / dilated renal pelvis
[29] = group: maternal, systemic / in life observation / body weight / body weight + systemic / in life observation / body weight / body weight gain + systemic / in…
[30] = group: developmental, developmental / developmental malformation / bone / absent
[31] = group: maternal, reproductive / reproductive performance / postimplantation loss / postimplantation loss + reproductive / reproductive performance / …
[32] = group: maternal, systemic / in life observation / body weight / body weight gain + systemic / in life observation / food consumption / food consumption + …

**Q.** Which results are given for `CC(C)[C@@H](Nc1ccc(C(F)(F)F)cc1Cl)C(=O)OC(C#N)c1cccc(Oc2ccccc2)c1` (stereo not given in full) [tau-Fluvalinate]?
**A.** LEL (dog [1]): 12 mg/kg/day; LOAEL (dog [1]): 12 mg/kg/day; NEL (dog [1]): 3 mg/kg/day; NOAEL (dog [1]): 3 mg/kg/day

**Q.** How did the NEL (dog [2]; [14]) turn out when `CC1(C)[C@H](/C=C(\Cl)C(F)(F)F)[C@@H]1C(=O)O[C@@H](C#N)c1cccc(Oc2ccccc2)c1` [lambda-Cyhalothrin] was run?
**A.** 0.1 mg/kg/day

**Q.** What about the NOAEL (dog [2]; [14]) of the same compound?
**A.** 0.1 mg/kg/day

**Q.** And the LEL (dog [2]; [15])?
**A.** 0.5 mg/kg/day

**Q.** And the LOAEL (dog [2]; [15])?
**A.** 0.5 mg/kg/day

**Q.** What about the LEL (rat [3]; systemic / clinical chemistry / aminopyrine-n-demethylase / aminopyrine-n-demethylase + systemic / organ weight / liver / absolute) of the same compound?
**A.** 2.5 mg/kg/day

**Q.** What about the LOAEL (rat [3]; [16]) of the same compound?
**A.** 12.5 mg/kg/day

**Q.** What about the NEL (rat [3]; [16]) of the same compound?
**A.** 0.5 mg/kg/day

**Q.** What about the NOAEL (rat [3]; [16]) of the same compound?
**A.** 2.5 mg/kg/day

**Q.** How did the LEL (rat [4]) turn out when `OC[C@H]1O[C@@H]2O[C@H]3[C@H](O)[C@@H](O)[C@@H](O[C@H]4[C@H](O)[C@@H](O)[C@@H](O[C@H]5[C@H](O)[C@@H](O)[C@@H](O[C@H]6[C@H](O)[C@@H](O)[C@@H](O[C@H]7[C@H](O)[C@@H](O)[C@@H](O[C@H]1[C@H](O)[C@H]2O)O[C@@H]7CO)O[C@@H]6CO)O[C@@H]5CO)O[C@@H]4CO)O[C@@H]3CO` [alpha-Cyclodextrin] was run?
**A.** 13.2 mg/kg/day

**Q.** What about the LOAEL (rat [4]) of the same compound?
**A.** > 13.2 mg/kg/day

**Q.** What about the NEL (rat [4]) of the same compound?
**A.** 6.5 mg/kg/day

**Q.** And the NOAEL (rat [4])?
**A.** ≥ 13.2 mg/kg/day

**Q.** `[O-][n+]1ccccc1[S-].[O-][n+]1ccccc1[S-].[Zn+2]` [Zinc pyrithione] was tested. Which LEL (rabbit [5]; [17]) did it give?
**A.** 3 mg/kg/day

**Q.** And the LOAEL (rabbit [5]; [17])?
**A.** > 3 mg/kg/day

**Q.** And the NEL (rabbit [5]; [17])?
**A.** 1.5 mg/kg/day

**Q.** What about the NOAEL (rabbit [5]; [17]) of the same compound?
**A.** ≥ 3 mg/kg/day

**Q.** What about the LEL (rabbit [5]; [18]) of the same compound?
**A.** 1.5 mg/kg/day

**Q.** And the LOAEL (rabbit [5]; [18])?
**A.** 1.5 mg/kg/day

**Q.** What about the NEL (rabbit [5]; [18]) of the same compound?
**A.** 0.5 mg/kg/day

**Q.** What about the NOAEL (rabbit [5]; [18]) of the same compound?
**A.** 0.5 mg/kg/day

**Q.** And the LEL (rat [6]; [19])?
**A.** 3 mg/kg/day

**Q.** What about the LOAEL (rat [6]; [19]) of the same compound?
**A.** 3 mg/kg/day

**Q.** And the NEL (rat [6]; [20])?
**A.** 0.75 mg/kg/day

**Q.** What about the NOAEL (rat [6]; [20]) of the same compound?
**A.** 0.75 mg/kg/day

**Q.** What about the LOAEL (rat [6]; group: maternal, systemic / in life observation / body weight / body weight gain + systemic / in life observation / clinical signs / salivation) of the same compound?
**A.** 3 mg/kg/day

**Q.** What about the LEL (rat [6]; [21]) of the same compound?
**A.** 3 mg/kg/day

**Q.** And the NEL (rat [6]; [21])?
**A.** 0.75 mg/kg/day

**Q.** And the NOAEL (rat [6]; [21])?
**A.** 0.75 mg/kg/day

**Q.** What about the LEL (rat [7]) of the same compound?
**A.** 1000 mg/kg/day

**Q.** What about the LOAEL (rat [7]) of the same compound?
**A.** 1000 mg/kg/day

**Q.** And the NEL (rat [7])?
**A.** 100 mg/kg/day

**Q.** What about the NOAEL (rat [7]) of the same compound?
**A.** 100 mg/kg/day

**Q.** Which results are given for `COC(=O)N(OC)c1ccccc1COc1ccn(-c2ccc(Cl)cc2)n1` [Pyraclostrobin]?
**A.** LOAEL (mouse; [22]): 30.4 mg/kg/day; NOAEL (mouse; [22]): 9.2 mg/kg/day; LEL (mouse; [23]): 12.9 mg/kg/day; NEL (mouse; [23]): < 12.9 mg/kg/day; LEL (rat [8]; [24]): 20.5 mg/kg/day; LOAEL (rat [8]; [24]): 20.5 mg/kg/day; NEL (rat [8]; [24]): < 20.5 mg/kg/day; NOAEL (rat [8]; [24]): < 20.5 mg/kg/day; LOAEL (rat [8]; group: parental, systemic / in life observation / body weight / body weight + systemic / in life observation / body weight / body weight gain): 39.9 mg/kg/day; LEL (rat [8]; [25]): 39.9 mg/kg/day; NEL (rat [8]; [25]): 20.5 mg/kg/day; NOAEL (rat [8]; [25]): 20.5 mg/kg/day; LEL (rat [9]; [26]): 79.7 mg/kg/day; LOAEL (rat [9]; [26]): > 119 mg/kg/day; NEL (rat [9]; [26]): 40.8 mg/kg/day; NOAEL (rat [9]; [26]): ≥ 119 mg/kg/day; LOAEL (rat [9]; [27]): 34.7 mg/kg/day; NEL (rat [9]; [27]): 3.5 mg/kg/day; NOAEL (rat [9]; [27]): 10.7 mg/kg/day; LEL (rat [9]; group: systemic, systemic / pathology microscopic / spleen / histiocytosis): 10.7 mg/kg/day; LEL (dog [10]): 10.8 mg/kg/day; LOAEL (dog [10]): 10.8 mg/kg/day; NEL (dog [10]): 5.4 mg/kg/day; NOAEL (dog [10]): 5.4 mg/kg/day; LEL (rat [11]; [28]): 50 mg/kg/day; LOAEL (rat [11]; [28]): 50 mg/kg/day; NEL (rat [11]; [28]): 25 mg/kg/day; NOAEL (rat [11]; [28]): 25 mg/kg/day; LEL (rat [11]; [29]): 25 mg/kg/day; LOAEL (rat [11]; [29]): 25 mg/kg/day; NEL (rat [11]; [29]): 10 mg/kg/day; NOAEL (rat [11]; [29]): 10 mg/kg/day; LEL (rat [12]): 9.2 mg/kg/day; LOAEL (rat [12]): 9.2 mg/kg/day; NEL (rat [12]): 3.4 mg/kg/day; NOAEL (rat [12]): 3.4 mg/kg/day; LEL (rabbit [13]; [30]): 20 mg/kg/day; LOAEL (rabbit [13]; [30]): > 20 mg/kg/day; NEL (rabbit [13]; [30]): 10 mg/kg/day; NOAEL (rabbit [13]; [30]): ≥ 20 mg/kg/day; LOAEL (rabbit [13]; [31]): 10 mg/kg/day; NOAEL (rabbit [13]; [31]): 5 mg/kg/day; LEL (rabbit [13]; [32]): 5 mg/kg/day; NEL (rabbit [13]; [32]): < 5 mg/kg/day
